Laboratory results from US20070191485A1, “Active oxygen scavenging composition including citrulline” (Nara Institute of Science and Technology, priority 2001, published 2007).
Like-named read-outs stand apart in the source and are kept apart here.

Tests used:
pyruvate kinase (PK) = assay: Protection of pyruvate kinase (PK) activity from injury by hydroxyl radical; format: biochemical, porcine; conditions: after 120 minutes (about 36% without citrulline)
Procedure: The ability of citrulline to protect bio-molecules, such as enzymes or nucleic acids, from hydroxyl radical was investigated. That is, investigation on the effect of hydroxyl radical exerted to enzymatic activity of pyruvate kinase (PK) was performed. Here, hydroxyl radical was generated by a system using ascorbic acid and hydrogen peroxide. The inactivation mixture contained 100 mM of Tris-HCl buffer (pH 7.4), 2.5 U of porcine PK (available from Oriental CO.), 0.2 mM of ascorbate, 0.15 mM of FeEDTA, 0.6 mM of H2O2 and citrulline at various concentrations. Then the total volume was adjusted to 250 μL. The inactivation reaction started by adding H2O2 at 25° C. and 10 μL of aliquot was sampled at constant intervals. Then residual activity of the enzyme was determined. The reaction mixture for measurement of enzymatic activity contained 80 mM of Tris-HCl buffer (pH 7.4), 7.5 mM of MgCl2, 75 mM of KCl, 3.75 mM of ADP, 0.15 mM of NADH, 10 U of porcine LDH, 0.8 mM of PEP and 10 μL of inactivated PK enzyme. The reaction started by addition of substrate at 25° C., and initial rate was measured by alteration of absorbance at 340 nm, accompanied by increase or decrease of NADH. In FIG. 5, ∘ indicates absence of citrulline, ● indicates presence of 200 mM citrulline, ▴ indicates presence of 400 mM citrulline, and ▪ indicates without generation of active oxygen, respectively.

[1] = system: lactate dehydrogenase (LDH); assay: Effect of solutes on enzymatic activity of lactate dehydrogenase (LDH); format: biochemical, Pig
Procedure: (§1) Safety of citrulline was compared with that of arginine, by investigation of inhibition on enzymatic activities of malate dehydrogenase (MDH) and lactate dehydrogenase (LDH), caused by high concentration citrulline and arginine. Chloride ion was used as ion pair for arginine, and assay on potassium chloride was performed to evaluate effect of the chloride ion as well.
(§2) Leaf tissue derived from wild water-melon (Citrullus lanatus sp. No. 101117-1) was fractured under cooling with liquid nitrogen. Then after extraction with extraction buffer (50 mM Tris-HCl, pH=7.5, 5 mM DTT, 5 μg/ml BSA, 15% glycerol), supernatant obtained by centrifugation at 10,000 g for 5 minutes was used as crude extraction fraction of malate dehydrogenase (MDH). Pig purified authentic enzyme available from Oriental Co., was used as lactate dehydrogenase (LDH). MDH reaction solution contained 100 mM Tris-HCl pH 7.5, 150 μM NADH, 250 μM oxaloacetic acid and 10 μL of enzyme solution, and the total volume of the solution was adjusted to 1 mL. As LDH reaction solution, a mixture containing 10 mM Tris-HCl pH 7.5, 150 μM NADH, 250 μM lithium pyruvate and 10 μL of enzyme solution was used. When effect of various kinds of solutes, e.g. citrulline, on enzymatic activity is to be investigated, pH of the solution was re-adjusted to 7.5 by using KOH after addition of the solute at various concentration. The reaction started at 25° C. by addition of substrate, then initial rate was determined by alteration of absorbance at 340 nm, accompanied by decrease of NADH. Incidentally, in FIG. 2 and FIG. 3, white columns indicate the results of citrulline, black columns indicate those of arginine chloride, and hatched columns indicate those of potassium chloride, respectively.

circular plasmid DNA = assay: Protection of circular plasmid DNA from injury by hydroxyl radical (agarose gel electrophoresis); conditions: after 2 hours
Procedure: Moreover, the effect of citrulline to prevent DNA from active oxygen injury was investigated. A solution containing 200 ng of circular plasmid DNA and various concentrations of citrulline was prepared and hydroxyl radical was generated by addition of 3 mM of H2O2 and 0.01 mM of FeEDTA. Then injury exerted on DNA was evaluated by agarose gel electrophoresis after 2 hours. The results were shown in FIG. 6 and lanes 1 to 7 indicated following experimental systems, respectively. In FIG. 6, lane 1 indicates molecular marker for electrophoresis. Lane 2 indicates a result untreated plasmid DNA. Lane 3 indicates a result from an experimental system wherein trivalent iron is added solely. Lane 4 indicates a result from an experimental system wherein hydroxyl radical was generated by addition of trivalent iron and hydrogen peroxide. Lane 5 indicates a result from an experimental system wherein 50 mM of citrulline was added to the system of lane 4 (the system with generation of active oxygen) to eliminate the generated active oxygen. Lane 6 indicates a result from an experimental system wherein 100 mM of citrulline was added to the system of lane 4 (the system with generation of active oxygen) to eliminate the generated active oxygen. Lane 7 indicates a result from an experimental system wherein 200 mM of citrulline was added to the system of lane 4 (the system with generation of active oxygen) to eliminate the generated active oxygen.

[2] = Kinetic analysis of reaction with hydroxyl radical (competition with hydroxylation of salicylic acid); conditions: for Reaction rate constant (with hydroxyl radical): calculated from competitive reaction theory, mannitol as standard
Procedure: To evaluate ability of citrulline as an active oxygen scavenger, reaction rate between citrulline and hydroxyl radical was determined. Generation of hydroxyl radical was performed by a system using ascorbic acid and hydrogen peroxide. Here hydroxylation of salicylic acid was used as an index for radical generation. The reaction mixture contained 40 mM of K-Pi buffer, pH 7.4, 0.26 mM of ascorbate, 0.15 mM of FeEDTA, 0.6 mM of H2O2, 2 mM of salicylate and various compatible solutes, then the total volume was adjusted to 400 μL. After reaction at 25° C. for 90 minutes, reaction product of salicylic acid and a hydroxyl radical (namely, 2,3-dihydroxybenzoic acid) was altered to its chromogenic derivative. Then it was determined by absorbance at 510 nm. As the result, the secondary reaction rate constant on reaction of citrulline and hydroxyl radical was calculated from competitive reaction theory. As the standard reaction rate constant, a reported value of mannitol (1.7×10^9 M^−1 s^−1) was used.
The secondary reaction rate constants between the solutes and hydroxyl radical were roughly calculated.

[3] = system: malate dehydrogenase (MDH); assay: Effect of solutes on enzymatic activity of malate dehydrogenase (MDH); format: biochemical, wild water-melon (Citrullus lanatus sp. No. 101117-1)
Procedure: as §1, §2

[4] = reported value used as the standard for calculation, cited from earlier work

Question: Which results are given for `NC(=O)NCCC[C@H](N)C(=O)O` [Citrulline, citrulline]?
Answer: residual activity of PK, % of the initial activity (pyruvate kinase (PK); 200 mM citrulline): 61%; residual activity of PK, % of the initial activity (pyruvate kinase (PK); 400 mM citrulline): 74%; inhibitory effect on lactate dehydrogenase (LDH) activity ([1]; high concentration of solute): not significant; decrease of LDH enzymatic activity ([1]; in the presence of 600 mM): about 10%; abscission of DNA (circular plasmid DNA; 50 mM citrulline (Lane 5)): markedly reduced; abscission of DNA (circular plasmid DNA; 100 mM citrulline (Lane 6)): markedly reduced; abscission of DNA (circular plasmid DNA; 200 mM citrulline (Lane 7)): markedly reduced; Reaction rate constant (with hydroxyl radical) [2]: 2.9e+09 M⁻¹ s⁻¹; potency as a scavenger of hydroxyl radical (FIG. 4) ([2]; compared with glycinebetaine, proline, mannitol): most significant among the four compatible solutes; calculated ID50 value (secondary reaction rate constant with hydroxyl radical) ([2]; roughly calculated): about 3×10^9 M^−1 s^−1; inhibitory effect on malate dehydrogenase (MDH) ([3]; high concentration of solute): did not cause any inhibitory effect; MDH activity, % of control ([3]; in the presence of 200 mM): about 109%

Question: With `C[N+](C)(C)CC(=O)O` [Glycinebetain, glycinebetaine, reference compound] as the molecule, how does the “Reaction rate constant (with hydroxyl radical)” value [2] read?
Answer: 2.1e+07 M⁻¹ s⁻¹

Question: Which “Reaction rate constant (with hydroxyl radical), reported standard value” [4] does the source give for `OC[C@@H](O)[C@@H](O)[C@H](O)[C@H](O)CO` [Mannitol, mannitol] here?
Answer: 1.7e+09 M⁻¹ s⁻¹

Question: And the “Reaction rate constant (with hydroxyl radical), reported standard value” ([4]; listed as mannitol)?
Answer: 1.7e+09 M⁻¹ s⁻¹

Question: With `O=C(O)[C@@H]1CCCN1` [Proline, proline, reference compound] as the molecule, how does the “Reaction rate constant (with hydroxyl radical)” value [2] read?
Answer: 3e+08 M⁻¹ s⁻¹

Question: For `O=C(O)c1ccccc1O` [Salicylic acid, salicylic acid, reference compound], which “Reaction rate constant (with hydroxyl radical)” value [2] is on record?
Answer: 6.3e+09 M⁻¹ s⁻¹

Question: With `[Cl-].[K+]` [potassium chloride, reference compound] as the molecule, how does the “LDH enzymatic activity, % of the control activity” value ([1]; in the presence of 600 mM) read?
Answer: 64%

Question: What about the “MDH enzymatic activity, % of the control activity” value ([3]; in the presence of 600 mM) of the same molecule?
Answer: 21%
